# Source: patent publication US20160291027A1, “METHODS FOR […] ABILITY OF A Z[…] COMPOUND TO TREAT CANCER” (Eisai R&D Management Co., Ltd., priority 2007, published 2016)
# pIC50: −log10 of the molar value.
# How the values were obtained:
# Colo-205 = assay: MTS cell growth inhibition assay; type: cell-based; conditions: Homo sapiens, 96 h, Colo-205 colorectal, BRAF mutated, four days
# Experimental: (§1) Cell growth inhibition following treatment with a zearalenone analog compound, Compound 106, was assessed in a panel of cancerous cell lines from different tissue types, which carry mutations in BRAF and/or RAS. A panel of 21 cell lines was tested with varying concentrations of Compound 106. All assays were performed in a 96 well format. Cell viability was assessed after four days following treatment. Cell viability was assessed with a MTS Assay (CellTiter96®AqueousOne Solution Cell Proliferation Assay, Promega) in a panel of cell lines carrying no mutations or various BRAF (V600E) and/or RAS mutations to determine the effect of BRAF and RAS genotype on drug sensitivity.
# DU4475 = assay: MTS cell growth inhibition assay; type: cell-based; conditions: Homo sapiens, DU-4475, 96 h, DU4475 breast, BRAF mutated, four days
# Experimental: as §1
# HT-29 = assay: MTS cell growth inhibition assay; type: cell-based; conditions: Homo sapiens, 96 h, HT-29 colorectal, BRAF mutated, four days
# Experimental: as §1
# MDA-MB-435 = assay: MTS cell growth inhibition assay; type: cell-based; conditions: Homo sapiens, 96 h, MDA-MB-435 breast, BRAF mutated, four days
# Experimental: as §1
# SK-MEL-24 = assay: MTS cell growth inhibition assay; type: cell-based; conditions: Homo sapiens, 96 h, SK-MEL-24 melanoma, BRAF mutated, four days
# Experimental: as §1
# SK-MEL-28 = assay: MTS cell growth inhibition assay; type: cell-based; conditions: Homo sapiens, 96 h, SK-MEL-28 melanoma, BRAF mutated, four days
# Experimental: as §1
# SK-MEL-3 = assay: MTS cell growth inhibition assay; type: cell-based; conditions: Homo sapiens, SK-MEL3, 96 h, SK-MEL-3 melanoma, BRAF mutated, four days
# Experimental: as §1
# [1] = system: BRAF mutant (V600E) melanoma cell lines; assay: Cell growth assay in BRAF mutant (V600E) melanoma cell lines; type: cell-based; conditions: continuous presence of compound
# Experimental: In a separate experiment, Compound 106 was tested in a panel of BRAF mutant (V600E) melanoma cell lines. (This set of cell lines represents 17 additional cell lines relative to FIG. 3C.) The melanoma cell lines were introduced into 96-well plates and grown in the absence or continuous presence of compound 106. IC50 values were determined as the concentration of a substance which inhibits cell growth by 50% compared to untreated cell populations.
# RPMI-7951 = assay: CellTiter-Glo cell growth assay; type: cell-based; conditions: RPMI-7951, BRAF mutated melanoma, elevated pAKT; 10 μmol/L to 0.0003 μmol/L
# Experimental: In order to determine whether Compound 106 resistance is associated with constitutive AKT phosphorylation as a result of activation of the PI3K signaling pathway, a panel of 10 BRAF mutated melanoma cell lines and a BRAF wild-type glioblastoma cancer cell line, SF-295, were tested using different concentrations of Compound 106 ranging from 10 μmol/L to 0.0003 μmol/L.
# All assays were performed in a 96 well format. For these cell lines, protein lysates were collected in a separate experiment, which allowed for the evaluation of the constitutive level of AKT phosphorylation and correlation between the level of phosphorylated AKT (pAKT) and Compound 106 sensitivity. Cell growth was assessed using CellTiter-Glo® Luminescent Cell Viability Assay (Promega). Phosphorylated AKT protein was analyzed by Western blotting, with total AKT being used as a loading control.
# [2] = system: DBTRG-05MG human glioblastoma xenografts; assay: Subcutaneous DBTRG-05MG glioblastoma xenograft model; type: in vivo, mice
# Experimental: The purpose of this study was to investigate anticancer activity of Compound 106 in a human DBTRG-05MG glioblastoma xenograft model. DBTRG-05MG human glioblastoma cancer cells, which carry the BRAF (V600E) mutation, were grown in monolayer cultures in ATCC-recommended growth media at 37° C. in a 5% CO2 humidified incubator. Cells were expanded in T225 flasks for the in vivo study. On the day of injection, growth medium was removed, flasks were washed with PBS, and cells were collected by trypsinization. The cells were washed and collected by centrifugation, and resuspended in ice-cold PBS.
# Female athymic NU/NU mice (6 week old, Charles River Laboratories (Wilmington, Mass.)) were inoculated subcutaneously (s.c.) with 5×10^6 DBTRG-05MG human glioblastoma cancer cells. Those animals that developed tumors of approximately 150 mm^3 were selected and randomized into five groups.
# The study consisted of a vehicle-treated group and four drug-treated groups of 8 mice per group for a total of 40 mice on the first day of treatment. All treatments were initiated on day 21. Compound 106 was administered intravenously (i.v.) on a Q4D×3 (days 21, 25, and 29) dosing schedule at dosages of 5, 10, 20 and 40 mg/kg with a volume of injection of 0.1 mL per 10 g body weight (Q4D×3=every four days for a total of three injections). The control group was treated with vehicle alone (20% Captisol in water; Captisol® (Sulfobutyl Ether Beta Cycolodextrin, Sodium Salt; Cydex, Inc., KS)).
# General health of the mice was monitored and mortality was recorded daily. Tumor dimensions and animal body weights were recorded twice a week starting on the first day of treatment. The s.c. tumor volumes were measured and animals were weighed twice weekly starting with the first day of treatment. Tumor volume was determined by caliper measurement (mm) and using the following formula: […]
# The study was terminated 60 days after cancer cell transplantation. […]
# [3] = system: wildtype xenograft models (pancreatic cell lines); assay: Other xenograft models, wildtype; type: in vivo, mice; conditions: 40 mg/kg i.v. QD×5 for 2 weeks
# Experimental: Additionally, one, five, and seven out of eight animals in the groups treated with Compound 106 at doses of 10, 20, or 40 mg/kg, respectively, were tumor-free at the end of the study on day 59. […] Compound 106 was also tested in other xenograft models, in which BRAF-mutated cells, including breast, colon, and melanoma cell lines, or wildtype cells, including pancreatic cell lines, were transplanted subcutaneously into female nude mice. Compound 106 or a vehicle control was administered intravenously.
smiles,measurement,setting,value
CCNc1cc(O)c2c(c1)/C=C/C[C@H](O)[C@H](O)C(=O)/C=C\[C@@H](C)[C@H](C)OC2=O [Compound 106],pIC50,Colo-205,> 7.00
same,pIC50,DU4475,> 7.00
same,pIC50,HT-29,> 7.00
same,pIC50,MDA-MB-435,> 7.00
same,pIC50,SK-MEL-24,> 7.00
same,pIC50,SK-MEL-28,> 7.00
same,pIC50,SK-MEL-3,> 7.00
same,Sensitivity of cell lines with BRAF mutation and wild-type PTEN status,[1],very sensitive
same,Sensitivity of cell line,RPMI-7951,resistant
same,Tumor-free animals on day 60,[2]; 5 mg/kg i.v. Q4D×3,One out of eight
same,Tumor-free animals on day 60,[2]; 20 mg/kg i.v. Q4D×3,One out of eight
same,Anticancer activity (tumor volume vs. control group),"[2]; 5, 10, 20, and 40 mg/kg i.v. Q4D×3",statistically significant anticancer activity
same,tumor regression,[3],30-40%
